No end group written: not given here. *: point of attachment. αGalNAc = CC(=O)N[C@@H]1[C@@H](O)[C@@H](O)[C@@H](CO)O[C@@H]1*

The values below come from article PMC10449632, “Structural basis for translation inhibition by the glycosylated drosocin peptide” (Nature Chemical Biology, 2023).

The subject of test [1] is in vitro translation, E. coli PURExpress system, firefly luciferase (Fluc) mRNA. In words: In vitro translation assay with Fluc reporter. The class given is biochemical, Escherichia coli. The settings on record: Fluc mRNA, luminescence; for maximum inhibition of in vitro translation: at the highest concentration tested of 150 μM. Here is the method:
To investigate this, we compared the effect of increasing concentrations (0–150 μM) of modified Dro1 and Dro2 with unmodified Dro, Dro-3P and Api137 using a cell-free in vitro translation system and firefly luciferase (Fluc) mRNA as a template (Fig. 1e), as we have used previously for assessing the activity of other PrAMPs[4],[6],[8],[9],[32],[33].
The in vitro translation assay was carried out as described previously[4],[8] using the E. coli PURExpress system (New England Biolabs (NEB), E6800S). Then, 1 µl of antibiotic solution was added to 5 µl of PURExpress reaction mix. Each reaction contained 10 ng μl^−1 of mRNA encoding the Fluc, which was in vitro transcribed from a pIVEX-2.3MCS vector containing the Fluc gene using T7 polymerase (Thermo Fisher Scientific). The reaction mix was incubated for 30 minutes at 32 °C while shaking (600 r.p.m.). Reactions were stopped with 5 µl of kanamycin (50 mg ml^−1) and transferred into a 96-well microplate (Greiner Lumitrac, non-binding, white, chimney). Next, 40 µl of luciferase assay substrate solution (Promega, E1501) was added, and luminescence was measured using a plate reader (Tecan Infinite 200 PRO). Nuclease-free water was added instead of antibiotic as control. Absolute luminescence values were normalized using reactions without antibiotic. All assays were done as triplicates with individually prepared reaction mix.

For test [2], the system named is E. coli SQ171 A752G/U2609C. In words: Antibiotic susceptibility (growth) assay, E. coli SQ171 A752G/U2609C. The class given is cell-based, Escherichia coli. As to conditions: for OD600 at t = 12 h, Normalized, Average: relative to no compound, mean of 3 replicas. From the text:
(§1) In addition, we also used a strain with a U2609C–A752G double mutation, which would be predicted to restore Watson–Crick base pairing, and with three hydrogen bonds could possibly make breaking the base pair harder than with the canonical two hydrogen bonds for the A–U base pair. As a control, we also tested Dro that lacks the α-D-GalNAc modification, which we predict (assuming that Dro binds analogously to Dro1) should not interact with U2609 and, therefore, not be influenced by the conformation of the U2609–A752 base pair.
(§2) Strains E. coli Keio wild-type and E. coli Keio ΔsbmA used from the Keio knockout collection (Horizon, https://horizondiscovery.com). Wild-type E. coli SQ110 (ΔrrnGADBHC(ptRNA67))[47] and SQ171 (ΔrrnGADEHBC(pKK3535, ptRNA67))[47] strains and related mutants E. coli SQ110 A2059G and E. coli SQ171 A2503G were obtained from the previous Api137 study. E. coli strains SQ171 bearing A752G, U2609C and A752G:U2609C mutations[43] and E. coli SQ171 U2609G[48] were generated previously.
(§3) The susceptibility of E. coli strains to compounds was evaluated by monitoring the bacterial growth in presence of increasing concentrations of the compound of interest. In brief, bacteria were inoculated in a total volume of 100 μl of medium contained in a well of a 96-well microplate (round bottom, with cap, sterile; Sarstedt). The medium used was either LB, as rich medium, or ATCC medium (778 Davis and Mingioli glucose minimal medium), as minimal medium. Before inoculation, bacteria were grown up to exponential phase and then inoculated into the culture mix, containing selective antibiotic if necessary, with an initial optical density at 600 nm (OD600) of 0.05. Values measured from wells containing just the medium were used as a blank. The growth in each well was monitored by measuring the OD600 every 10 minutes for a total of 20 hours at 37 °C with shaking using a plate reader (Tecan Infinite 200 PRO). The inhibition resulting from a compound’s concentration was evaluated by normalizing the OD600 at t = 12 hours (corresponding to the end of the log phase) from the treated culture to the untreated one. For each compound, the concentrations tested were 5 μM, 10 μM and 30 μM. Each single titration assay was done in triplicate with individually prepared culture mixes. For each concentration, the standard deviation was calculated, taking into account each single replica and its specific technical error from the plate reader.

In test [3] the test system is E. coli Keio wt (BW25113). In words: Antibiotic susceptibility (growth) assay, E. coli Keio wild-type. Format: cell-based, Escherichia coli. The settings on record: 30 μM peptide; for Average of normalized growth: average of three biological replicates; for growth inhibition in rich medium: rich (LB) medium.
Excerpt: Many PrAMPs use the SbmA transporter to pass through the E. coli inner membrane[4],[10],[31]; however, whether drosocin also uses SbmA remains, to our knowledge, unknown. To address this, we monitored the effect of the presence of diverse drosocin peptides (Fig. 1a,b and Supplementary Fig. 1a) on the growth of the wild-type E. coli strain BW25113 containing SbmA or lacking SbmA (ΔsbmA) (Fig. 1c,d). We compared unmodified drosocin (Dro) with various modified forms (Fig. 1a,b). The modified forms included the naturally occurring Dro1 and Dro2 that carry either a monosaccharide (α-D-GalNAc) or disaccharide (β-D-Gal(1→3)-α-D-GalNAc) attached to Thr11, respectively (Fig. 1b). In addition, we examined the previously reported[23],[24] drosocin derivatives bearing β-D-Maltosyl (Dro3), α-D-GlcNAc (Dro4), β-D-Gal (Dro5), β-D-Glc (Dro6), β-D-Lactosyl (Dro7) and β-D-Cellobiosyl (Dro8) modifications on Thr11 (Fig. 1a,b and Supplementary Fig. 1a). Finally, we also included in our analysis the synthetic unmodified drosocin derivative with proline substitutions at positions 7, 11 and 12 (Dro-3P) (Fig. 1a), which was previously reported to have similar antimicrobial activity to the monosaccharide form of drosocin[25]. Growth was monitored in both rich (LB) and minimal medium in the presence of 30 μM of each peptide and normalized with the growth in the absence of the compounds (Methods). […] We also observed no inhibition for Dro2 nor for any of the β-linked disaccharides (Dro3, Dro6 or Dro7). […] By contrast, all drosocin peptides inhibited growth of the E. coli BW25113 strain in minimal medium, albeit to different extents (Fig. 1d).
as §2, §3

In a further test the test system is E. coli SQ171 A752G. The experiment in a line: Antibiotic susceptibility (growth) assay, E. coli SQ171 A752G. The class given is cell-based, Escherichia coli. The settings on record: relative to no compound, mean of 3 replicas.
Excerpt: as §1, §2, §3

The next test relates to E. coli SQ171 U2609C. The experiment in a line: Antibiotic susceptibility (growth) assay, E. coli SQ171 U2609C. The class given is cell-based, Escherichia coli. The settings on record: relative to no compound, mean of 3 replicas.
Excerpt: as §1, §2, §3

The subject of a further test is E. coli SQ171 U2609G. In words: Antibiotic susceptibility (growth) assay, E. coli SQ171 U2609G. Format: cell-based, Escherichia coli. The settings on record: relative to no compound, mean of 3 replicas.
Excerpt: as §1, §2, §3

With “Dro1: naturally occurring drosocin carrying monosaccharide α-D-GalNAc attached to Thr11 (GKPRPYSPRPT(αGalNAc)SHPRPIRV; UniProt P36193 22-40, looked up)”, the IC50 in test [1] (0–150 μM peptide, 30 minutes at 32 °C, triplicate, read-out: half maximal inhibitory concentration (IC50), in vitro translation) was found to be 78 ± 13 µM. In addition, the “maximum inhibition of in vitro translation” value in test [1] came out at 60%. Besides, the “OD600 at t = 12 h, Normalized, Average” value in test [2] (5 μM) is on record as 70%; in test [2] (30 μM) it was 25%; in the test with E. coli SQ171 A752G (5 μM), 70%; with E. coli SQ171 A752G (30 μM), 7%; with E. coli SQ171 U2609C (5 μM) it was 40%; with E. coli SQ171 U2609C (30 μM), 5%. In addition, the “OD600 at t = 12 h, Normalized, Average” value with E. coli SQ171 U2609G (5 μM) is reported as 50%; in the test on E. coli SQ171 U2609G (30 μM), 8%. Also, in test [2] (U2609C–A752G double mutation vs wild-type SQ171, 30 μM), the “tolerance of double mutant relative to the wild-type strain” value came out at 2.5 fold. For the same substance, the “Average of normalized growth” value is on record as 38% in test [3] (LB rich medium) and 6% in test [3] (Minimal medium). Moreover, in test [3], the “growth inhibition in minimal medium” value is “highest inhibition”. Moreover, the “growth inhibition in rich medium” value in test [3] is recorded as “growth inhibition”.
As to “Dro: unmodified drosocin, 19 amino acid proline-rich antimicrobial peptide lacking O-glycosylation (GKPRPYSPRPTSHPRPIRV; Drosocin; UniProt P36193 22-40, looked up)”, in test [1], the “maximum inhibition of in vitro translation” value came out at 20%. Also, the “OD600 at t = 12 h, Normalized, Average” value in test [2] (5 μM) is listed as 85%; in test [2] (30 μM), 72%; with E. coli SQ171 A752G (5 μM), 84%; with E. coli SQ171 A752G (30 μM), 59%; with E. coli SQ171 U2609C (5 μM), 92%; in the test on E. coli SQ171 U2609C (30 μM) it was 71%. The “OD600 at t = 12 h, Normalized, Average” value amounted to 87% with E. coli SQ171 U2609G (5 μM) and 59% with E. coli SQ171 U2609G (30 μM). The “Average of normalized growth” value in test [3] (LB rich medium) is listed as 98%; in test [3] (Minimal medium), 87%. For the same substance, in test [3], the “growth inhibition in minimal medium” value is “lowest”. The “growth inhibition in rich medium” value in test [3] is “inactive”.
